Where two headings read alike, the source gives them in different places. Values belong to the compound of their own block, whether it stands above or below them.
Target: T1, rat PTP1 (Rattus norvegicus, UniProt P20417)
T1 construct: a C-terminal truncation of rat PTP1 (amino acid residues 1-322); GST (N, cleaved yes); made in house; host or cells: E. coli strain TG-1 (pGEX-2T)
T1 sequence (P20417 1-322): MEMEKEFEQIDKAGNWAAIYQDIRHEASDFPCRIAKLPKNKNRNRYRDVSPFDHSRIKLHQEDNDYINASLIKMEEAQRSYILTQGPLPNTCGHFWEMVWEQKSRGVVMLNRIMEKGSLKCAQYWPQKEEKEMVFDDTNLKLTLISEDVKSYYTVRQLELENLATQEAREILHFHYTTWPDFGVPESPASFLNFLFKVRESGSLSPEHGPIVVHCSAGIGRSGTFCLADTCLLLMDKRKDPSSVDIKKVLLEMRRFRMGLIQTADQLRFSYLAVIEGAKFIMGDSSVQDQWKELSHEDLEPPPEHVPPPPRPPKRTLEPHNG
Assay: PTP1 assay, pNPP hydrolysis (rate of change in A405)
Format: biochemical
From the text: PTP1 Assays: A construct, which consisted of a C-terminal truncation of rat PTP1 (amino acid residues 1-322) (cloned from a rat brain library) with an N-terminal glutathione S-transferase (GST) tag and an adjacent thrombin cleavage site, was inserted into vector plasmid pGEX-2T and transformed into E. coli strain TG-1 under the control of a lac promoter (K. L. Guan and J. E. Dixon (1991) Eukaryotic proteins expressed in Escherichia coli: an improved thrombin cleavage and purification procedure of fusion proteins with glutathione S-transferase. Analyt. Biochem. 192: 262-267). The GST-fusion protein was purified on a glutathione agarose affinity column, the GST tag was cleaved with thrombin, and the active enzyme was recovered for use in an assay to identify PTP inhibitors.
PTP1 activity is measured using either p-nitrophenol phosphate (pNPP) or a triphosphopeptide (that matches residues 1142 through 1153 of the β-subunit and the insulin receptor) as substrate in a 96-well microtiter plate format. An assay pH of 7.2 is used for standard assays (measured 405=9800 at pH 7.2).
Standard assays are conducted at room temperature in a total volume of 0.2 ml that contains Hepes buffer (50 mM, pH 7.2), NaCl (50 mM), EDTA (1 mM), DTT (1 mM), bovine serum albumin (1 mg/ml), pNPP (1 mM) and PTP1 (35 ng/ml). Compounds (2 μl of 10 mM solutions) are pipetted into wells of microtiter plates followed by 198 μl of premixed reaction mix (with PTP1 and pNPP added immediately before use). The rate of change in A405 is recorded for 60 min. Two wells on each plate contain DMSO controls and two wells contain sodium orthovanadate (1 mM) which inhibits PTP1-catalyzed hydrolysis of pNPP completely. Data are expressed as percent inhibition relative to the average of the DMSO controls measured on the same microtiter plate.

[1] = Conc 1 uM, pNPP hydrolysis, Table 2, read-out: PTP1 Inhib PTP1N. % Inhib
[2] = Conc 10 uM, pNPP hydrolysis, Table 2, read-out: PTP1 Inhib PTP1N. % Inhib
[3] = Conc 100 uM, pNPP hydrolysis, Table 2, read-out: PTP1 Inhib PTP1N. % Inhib
[4] = inhibition of pNPP-hydrolysis, compound concentration 1 μM, read-out: % Inhibition
[5] = inhibition of pNPP-hydrolysis, compound concentration 10 μM, read-out: % Inhibition
[6] = inhibition of pNPP-hydrolysis, compound concentration 100 μM, read-out: % Inhibition
[7] = Conc 1 uM, pNPP hydrolysis, Table 1, read-out: PTP1 Inhib % Inhib
[8] = Conc 10 uM, pNPP hydrolysis, Table 1, read-out: PTP1 Inhib % Inhib
[9] = Conc 100 uM, pNPP hydrolysis, Table 1, read-out: PTP1 Inhib % Inhib

SMILES: CCCCCNC(=O)C(Cc1ccc(OC(COO)COO)cc1)NC(=O)C(Cc1ccc(OCc2ccccc2)cc1)NC(=O)CCC(=O)O (stereo not shown)
inhibition at 1 µM [1]: 30%
inhibition at 10 µM [2]: 80%
inhibition at 100 µM [3]: 98%

SMILES: CC(C)(C)OC(=O)N[C@@H](Cc1ccccc1)C(=O)N[C@H](Cc1ccc(OCC(=O)O)c(C(=O)O)c1)C(=O)NCCCN1CCCC1=O [Example 157-12, 5-((2R)-2-({(2S)-2-[(tert-Butoxycarbonyl)amino]-3-phenylpropanoyl}amino)-3-oxo-3-{[3-(2-oxo-1-pyrrolidinyl)propyl]amino}propyl)-2-(carboxymethoxy)benzoic Acid]
inhibition at 1 µM [4]: 27%
inhibition at 10 µM [5]: 76%
inhibition at 100 µM [6]: 95%

SMILES: CCCCCNC(=O)C(Cc1ccc(OC(COO)C(=O)O)cc1)NC(=O)NC(Cc1ccccc1)C(=O)O (stereo not shown)
inhibition at 1 µM [1]: 8%
inhibition at 10 µM [2]: 57%
inhibition at 100 µM [3]: 93%

SMILES: CCCCCNC(=O)C(Cc1ccc(OC(COO)COO)cc1)NC(=O)C(Cc1ccc(OC)cc1)NC(=O)OC(C)(C)C (stereo not shown)
inhibition at 1 µM [1]: 8%
inhibition at 10 µM [2]: 36%
inhibition at 100 µM [3]: 90%

SMILES: O=C(O)CCC(=O)N[C@@H](Cc1ccc(OC(C(=O)O)C(=O)O)cc1)C(=O)NCCN1CCCCC1
inhibition at 1 µM [7]: 0%
inhibition at 10 µM [8]: 2%
inhibition at 100 µM [9]: 23%

SMILES: CCCCCNC(=O)C(Cc1ccc(OC(COO)COO)cc1)NC(=O)N(Cc1ccc(CC(=O)O)cc1)Cc1cccc(C(F)(F)F)c1 (stereo not shown)
inhibition at 1 µM [1]: 4%
inhibition at 10 µM [2]: 51%
inhibition at 100 µM [3]: 92%

SMILES: CC(C)CC(CO)NC(=O)C(Cc1ccc(OC(COO)COO)cc1)NC(=O)CCC(=O)O (stereo not shown)
inhibition at 1 µM [1]: 3%
inhibition at 10 µM [2]: 15%
inhibition at 100 µM [3]: 57%

SMILES: CCCCCNC(=O)C(Cc1ccc(OC(COO)COO)cc1)NC(=O)[C@H](Cc1ccc(C(=O)c2ccccc2)cc1)NC(C)=O (stereo partly shown)
inhibition at 1 µM [1]: 9%
inhibition at 10 µM [2]: 42%
inhibition at 100 µM [3]: 87%

SMILES: CCCCCNC(=O)[C@H](Cc1ccc(C=C(C(=O)O)C(=O)O)cc1)NC(=O)CCC(=O)O
inhibition at 1 µM [7]: 3%
inhibition at 10 µM [8]: 6%
inhibition at 100 µM [9]: 33%

SMILES: CCCCCNC(=O)[C@H](Cc1ccc(OC(C(=O)O)C(=O)O)cc1)NC(=O)C(CC(=O)O)CC(=O)O
inhibition at 1 µM [7]: 1%
inhibition at 10 µM [8]: 33%
inhibition at 100 µM [9]: 83%

SMILES: CCCCCNC(=O)[C@H](Cc1ccc(OC(C(=O)O)C(=O)O)cc1)NC(=O)CC(C)(C)CC(=O)O
inhibition at 1 µM [7]: 0%
inhibition at 10 µM [8]: 18%
inhibition at 100 µM [9]: 67%

SMILES: O=C(O)CCC(=O)N[C@@H](Cc1ccc(OC(C(=O)O)C(=O)O)cc1)C(=O)NCCCN1CCOCC1
inhibition at 1 µM [7]: 0%
inhibition at 10 µM [8]: 6%
inhibition at 100 µM [9]: 35%

SMILES: CCCCCNC(=O)C(Cc1ccc(OC(COO)COO)cc1)NC(=O)NCC(=O)O (stereo not shown)
inhibition at 1 µM [7]: 4%
inhibition at 10 µM [8]: 23%
inhibition at 100 µM [9]: 75%

SMILES: CCCCCNC(=O)C(Cc1ccc(OC(COO)COO)cc1)NC(=O)C(Cc1ccc(OC(C)(C)C)cc1)NC(=O)CCC(=O)O (stereo not shown)
inhibition at 1 µM [1]: 37%
inhibition at 10 µM [2]: 83%
inhibition at 100 µM [3]: 97%

SMILES: CC(C)(C)OC(=O)N[C@@H](Cc1ccccc1)C(=O)N[C@@H](Cc1ccc(OCC(=O)O)c(C(=O)O)c1)C(=O)NCCO [Example 157-3, 5-{(2S)-2-({(2S)-2-[(tert-Butoxycarbonyl)amino]-3-phenylpropanoyl}amino)-3-[(2-hydroxyethyl)amino]-3-oxopropyl}-2-(carboxymethoxy)benzoic]
% Inhibition (inhibition of pNPP-hydrolysis, compound concentration 1 μM): 22%
% Inhibition (inhibition of pNPP-hydrolysis, compound concentration 10 μM): 72%
% Inhibition (inhibition of pNPP-hydrolysis, compound concentration 100 μM): 94%

SMILES: CC(C)(C)OC(=O)N[C@@H](Cc1ccccc1)C(=O)N[C@@H](Cc1ccc(OCC(=O)O)c(C(=O)O)c1)C(=O)NCc1cccnc1 [Example 157-14, 5-{(2S)-2-({(2S)-2-[(tert-Butoxycarbonyl)amino]-3-phenylpropanoyl}amino)-3-oxo-3-[(3-pyridinylmethyl)amino]propyl}-2-(carboxymethoxy)benzoic Acid]
inhibition at 1 µM [4]: 20%
inhibition at 10 µM [5]: 67%
inhibition at 100 µM [6]: 94%

SMILES: CCCCCCNC(=O)[C@H](Cc1ccc(OC(C(=O)O)C(=O)O)cc1)NC(=O)CCC(=O)O
inhibition at 1 µM [7]: 3%
inhibition at 10 µM [8]: 17%
inhibition at 100 µM [9]: 74%

SMILES: O=C(O)CCC(=O)N[C@@H](Cc1ccc(OC(C(=O)O)C(=O)O)cc1)C(=O)NCCc1ccc(O)cc1
inhibition at 1 µM [7]: 1%
inhibition at 10 µM [8]: 7%
inhibition at 100 µM [9]: 43%

SMILES: CCCCCNC(=O)[C@H](Cc1ccc(OC(C(=O)O)C(=O)O)cc1)NC(=O)[C@@H]1CCCC[C@H]1C(=O)O
inhibition at 1 µM [7]: 1%
inhibition at 10 µM [8]: 20%
inhibition at 100 µM [9]: 72%

SMILES: [Na+].[Na+].[Na+].[O]=[V]([O-])([O-])[O-] [sodium orthovanadate, reference compound]
inhibits PTP1-catalyzed hydrolysis of pNPP (1 mM, control wells on each plate): completely

SMILES: CCCCCNC(=O)C(Cc1ccc(OC(COO)COO)cc1)NC(=O)N(CC(=O)O)Cc1ccc(OCc2ccccc2)cc1 (stereo not shown)
inhibition at 1 µM [7]: 5%
inhibition at 10 µM [8]: 35%
inhibition at 100 µM [9]: 90%

SMILES: CCCC[C@H](NC(=O)[C@H](Cc1ccc(OC(C(=O)O)C(=O)O)cc1)NC(=O)CCC(=O)O)C(N)=O
inhibition at 1 µM [7]: 16%
inhibition at 10 µM [8]: 63%
inhibition at 100 µM [9]: 93%

SMILES: CCCCCNC(=O)C(Cc1ccc(OC(COO)COO)cc1)NC(=O)NCCCCCC(=O)O (stereo not shown)
inhibition at 1 µM [7]: 6%
inhibition at 10 µM [8]: 18%
inhibition at 100 µM [9]: 63%

SMILES: CCCCCNC(=O)C(C)(Cc1ccc(OC(C(=O)O)C(=O)O)cc1)NC(=O)CCC(=O)O (stereo not shown)
inhibition at 1 µM [1]: 3%
inhibition at 10 µM [2]: 6%
inhibition at 100 µM [3]: 34%

SMILES: CCCCCNC(=O)[C@H](Cc1ccc(OC(C(=O)O)C(=O)O)cc1)NC(=O)c1ccccc1C(=O)O
inhibition at 1 µM [7]: 2%
inhibition at 10 µM [8]: 14%
inhibition at 100 µM [9]: 63%

SMILES: CCCCCNC(=O)[C@H](Cc1ccc(OC(C(=O)O)C(=O)O)cc1)NC(=O)[C@H](CC(=O)O)NC(=O)CCCCC
inhibition at 1 µM [7]: 14%
inhibition at 10 µM [8]: 57%
inhibition at 100 µM [9]: 91%

Second part, the compound after the results:

inhibition at 1 µM [4]: 18%
inhibition at 10 µM [5]: 69%
inhibition at 100 µM [6]: 95%
SMILES: O=C(O)COc1ccc(C[C@H](NS(=O)(=O)c2ccc(F)cc2F)C(=O)NCCCCc2ccc(Cl)cc2)cc1C(=O)O [Example 156-1, 2-(carboxymethoxy)-5-((2S)-3-{[4-(4-chlorophenyl)butyl]amino}-2-{[(2,4-difluorophenyl)sulfonyl]amino}-3-oxopropyl)benzoic acid]

inhibition at 1 µM [4]: 80%
inhibition at 10 µM [5]: 31%
inhibition at 100 µM [6]: 97%
SMILES: O=C(O)COc1ccc(C[C@H](NC(=O)c2ccoc2)C(=O)NCCCCc2ccccc2)cc1C(=O)O [Example 154-15, 2-(carboxymethoxy)-5-{(2S)-2-(3-furoylamino)-3-oxo-3-[(4-phenylbutyl)amino]propyl}benzoic acid]

inhibition at 1 µM [4]: 30%
inhibition at 10 µM [5]: 81%
inhibition at 100 µM [6]: 97%
SMILES: O=C(O)COc1ccc(C[C@H](NC(=O)c2ccccc2)C(=O)NCCCCc2ccccc2)cc1C(=O)O [Example 154-8, 5-{(2S)-2-(benzoylamino)-3-oxo-3-[(4-phenylbutyl)amino]propyl}-2-(carboxymethoxy)benzoic acid]

inhibition at 1 µM [4]: 20%
inhibition at 10 µM [5]: 72%
inhibition at 100 µM [6]: 95%
SMILES: O=C(O)COc1ccc(C[C@H](NS(=O)(=O)c2ccccc2)C(=O)NCCCOc2ccccc2)cc1C(=O)O [Example 156-16, 2-(carboxymethoxy)-5-{(2S)-3-oxo-3-[(3-phenoxypropyl)amino]-2-[(phenylsulfonyl)amino]propyl}benzoic acid]

inhibition at 1 µM [4]: 22%
inhibition at 10 µM [5]: 73%
inhibition at 100 µM [6]: 95%
SMILES: O=C(O)COc1ccc(C[C@H](NC(=O)c2cccnc2)C(=O)NCCCCc2ccccc2)cc1C(=O)O [Example 154-11, 2-(carboxymethoxy)-5-{(2S)-3-oxo-3-[(4-phenylbutyl)amino]-2-[(3-pyridinylcarbonyl)amino]propyl}benzoic acid]

— patent US6410585B1, “Inhibitors of protein tyrosine phosphatase” (priority 1997, dated 2002)
